Counter-ions that a name gives are not always drawn.
Tests used:
[1] = test system: Nrf2(+/+) and (-/-) T cells; experiment: CD25 expression in Nrf2(+/+) and (-/-) T cells; assay type: cell-based, mouse; details: 24 h
Procedure: C57BL/6J and Nrf2^-/- mice (Stock No:017009; […]: Jackson Labs) were bred and maintained in a closed breeding facility at The Scripps Research Institute and were 6-8 weeks old when used in experiments. All mice were used in accordance with guidelines from the Institutional Animal Care and Use Committee of The Scripps Research Institute. Spleens were harvested from female mice, perfused with collagenase, and incubated at 37° C. with 5% CO2 for 30 min. After this time, the spleens were homogenized. Cells that passed through a 100 μm cell strainer were collected and washed with RPMI. T cells were isolated from the splenocytes using the EasySepTM Mouse T cell Isolation Kit (19851; […]) according to manufacturer's instructions. 96-well plates were coated with anti-CD3 (1:200; BioXcell) and anti-CD28 (1:500; 302933; BioLegend) in PBS (100 μL/well) overnight at 4° C. The plates were then washed twice with PBS and to each well was added 500,000 primary T cells in 100 μL of RPMI supplemented with 10% FBS, glutamine, and Pen-Strep. Cells were then treated with 100 μL of media containing compound at the indicated concentrations (final well volume of 200 μL). Cells were left at 37° C. in a 5% CO2 incubator for the indicated periods of time and harvested by centrifugation (500 g, 8 min, 4° C.), followed by washing with PBS. […] Data was then analyzed with FlowJo software (Treestar Inc.). […]

[2] = test system: Cys residues in mouse T cells; experiment: isoTOP-ABPP of DMF-treated mouse T cells; assay type: cell-based; details: 50 μM, 4 h
Procedure: Spleens were harvested from female mice, perfused with collagenase, and incubated at 37° C. with 5% CO2 for 30 min. After this time, the spleens were homogenized. Cells that passed through a 100 μm cell strainer were collected and washed with RPMI. T cells were isolated from the splenocytes using the EasySep™ Mouse T cell Isolation Kit (19851; […]) according to manufacturer's instructions. Cells were lysed by sonication and diluted to a concentration of 2 mg protein/mL. […] Site-specific engagement of electrophilic compounds was assessed by blockade of IA-alkyne probe labeling. […] Overlapping peptides with the same labeled cysteine (for example, same local sequence around the labeled cysteines but different charge states, MudPIT segment numbers, or tryptic termini) were grouped together, and the median ratio from each group was recorded as the R value of the peptide for that run.

[3] = molecular target: Cys residues in primary human T cells (Homo sapiens, UniProt O00170); experiment: isoTOP-ABPP of compound-treated primary human T cells; assay type: cell-based; details: AIP C122 (O00170)
[4] = molecular target: Cys residues in primary human T cells (Homo sapiens, UniProt Q8IYQ7); experiment: as above; assay type: cell-based; details: THNSL1 C324 (Q8IYQ7)
[5] = molecular target: Cys residues in primary human T cells (Homo sapiens, UniProt Q7Z2W4); experiment: as above; assay type: cell-based; details: ZC3HAV1 C645 (Q7Z2W4)
[6] = molecular target: T1, Cys residues in primary human T cells (Homo sapiens, UniProt Q9NRW3); experiment: as above; assay type: cell-based; details: APOBEC3C C130 (Q9NRW3)
T1 sequence (Q9NRW3 1-190): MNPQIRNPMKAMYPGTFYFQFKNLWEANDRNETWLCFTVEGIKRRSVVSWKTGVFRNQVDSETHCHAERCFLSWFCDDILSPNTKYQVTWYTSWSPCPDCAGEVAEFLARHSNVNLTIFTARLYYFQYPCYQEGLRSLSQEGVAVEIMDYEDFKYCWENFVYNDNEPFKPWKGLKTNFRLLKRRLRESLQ

[7] = molecular target: T2, Cys residues in primary human T cells (Homo sapiens, UniProt Q96Q11); experiment: as above; assay type: cell-based; details: TRNT1 C373 (Q96Q11)
T2 sequence (Q96Q11 42-434): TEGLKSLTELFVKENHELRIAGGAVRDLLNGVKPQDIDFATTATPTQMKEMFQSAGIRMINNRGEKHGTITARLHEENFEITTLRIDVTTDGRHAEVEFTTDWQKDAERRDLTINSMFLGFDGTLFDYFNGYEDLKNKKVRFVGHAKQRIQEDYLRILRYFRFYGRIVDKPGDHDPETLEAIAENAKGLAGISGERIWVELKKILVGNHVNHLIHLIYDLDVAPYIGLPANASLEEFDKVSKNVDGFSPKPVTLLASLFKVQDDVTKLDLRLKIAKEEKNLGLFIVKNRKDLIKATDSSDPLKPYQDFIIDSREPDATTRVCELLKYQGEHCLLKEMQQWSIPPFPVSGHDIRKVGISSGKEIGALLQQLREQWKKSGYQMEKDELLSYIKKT

WAPAL C160 (Q7Z5K2) = WAPAL C160 (Q7Z5K2) (Homo sapiens, UniProt Q7Z5K2); experiment: Competitive isoTOP-ABPP in situ; assay type: cell-based; details: fragment 2 at 200 μM, MDA-MB-231 cells
NIT1 C165 (Q86X76) = NIT1 C165 (Q86X76) (Homo sapiens, UniProt Q86X76); experiment: Competitive isoTOP-ABPP in situ; assay type: cell-based; details: fragment 4 at 100 μM, MDA-MB-231 cells
RAI14 C973 (Q9P0K7) = RAI14 C973 (Q9P0K7) (Homo sapiens, UniProt Q9P0K7); experiment: Competitive isoTOP-ABPP in situ; assay type: cell-based; details: fragment 4 at 100 μM, MDA-MB-231 cells
CDKN3 C39 (Q16667) = CDKN3 C39 (Q16667) (Homo sapiens, UniProt Q16667); experiment: Competitive isoTOP-ABPP in situ; assay type: cell-based; details: fragment 4 at 100 μM, MDA-MB-231 cells
CDKN3 C39 (Q16667), sequence (Q16667 whole entry, the tested form may be a part): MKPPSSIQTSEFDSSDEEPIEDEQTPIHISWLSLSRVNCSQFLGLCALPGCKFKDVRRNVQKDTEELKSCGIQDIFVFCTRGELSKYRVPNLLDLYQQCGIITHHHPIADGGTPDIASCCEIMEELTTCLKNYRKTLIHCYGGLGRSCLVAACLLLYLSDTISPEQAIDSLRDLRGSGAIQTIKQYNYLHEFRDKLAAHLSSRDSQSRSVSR

Cys residues in primary human T cells (Homo sapiens, UniProt Q7Z2W4), sequence (Q7Z2W4 whole entry): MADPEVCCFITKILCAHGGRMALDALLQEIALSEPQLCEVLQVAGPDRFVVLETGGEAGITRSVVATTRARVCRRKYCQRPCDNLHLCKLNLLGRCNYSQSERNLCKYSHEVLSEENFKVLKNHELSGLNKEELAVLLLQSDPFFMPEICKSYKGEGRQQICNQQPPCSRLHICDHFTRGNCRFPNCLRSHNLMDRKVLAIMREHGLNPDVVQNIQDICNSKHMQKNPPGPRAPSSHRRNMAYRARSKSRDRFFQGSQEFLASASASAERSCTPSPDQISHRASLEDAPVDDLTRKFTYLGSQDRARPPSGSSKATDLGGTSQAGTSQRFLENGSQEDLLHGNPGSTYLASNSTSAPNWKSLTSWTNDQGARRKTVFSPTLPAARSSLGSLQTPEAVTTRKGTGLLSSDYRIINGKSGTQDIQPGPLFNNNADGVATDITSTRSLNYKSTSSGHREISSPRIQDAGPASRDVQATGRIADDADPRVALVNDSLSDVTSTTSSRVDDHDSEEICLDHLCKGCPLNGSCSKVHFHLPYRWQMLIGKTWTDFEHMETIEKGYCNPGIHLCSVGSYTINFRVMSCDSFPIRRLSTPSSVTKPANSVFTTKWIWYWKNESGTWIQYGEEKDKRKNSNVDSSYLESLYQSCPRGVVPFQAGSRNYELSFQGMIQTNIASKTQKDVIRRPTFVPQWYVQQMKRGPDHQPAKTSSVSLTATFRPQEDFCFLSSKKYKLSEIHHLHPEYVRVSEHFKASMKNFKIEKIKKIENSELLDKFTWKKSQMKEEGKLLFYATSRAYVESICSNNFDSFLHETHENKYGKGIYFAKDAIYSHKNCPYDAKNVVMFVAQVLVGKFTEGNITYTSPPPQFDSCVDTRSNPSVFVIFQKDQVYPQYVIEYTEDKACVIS
Cys residues in primary human T cells (Homo sapiens, UniProt O00170), sequence (O00170 whole entry): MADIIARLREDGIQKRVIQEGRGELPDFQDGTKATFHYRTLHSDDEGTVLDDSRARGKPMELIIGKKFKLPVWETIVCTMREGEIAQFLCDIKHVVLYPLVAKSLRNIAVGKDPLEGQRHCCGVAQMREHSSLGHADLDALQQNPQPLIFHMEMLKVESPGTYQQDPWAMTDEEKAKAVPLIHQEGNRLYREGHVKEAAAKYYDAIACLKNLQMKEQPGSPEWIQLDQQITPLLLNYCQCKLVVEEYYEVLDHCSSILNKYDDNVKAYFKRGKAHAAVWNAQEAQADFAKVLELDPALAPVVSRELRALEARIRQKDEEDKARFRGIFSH
Cys residues in primary human T cells (Homo sapiens, UniProt Q8IYQ7), sequence (Q8IYQ7 whole entry): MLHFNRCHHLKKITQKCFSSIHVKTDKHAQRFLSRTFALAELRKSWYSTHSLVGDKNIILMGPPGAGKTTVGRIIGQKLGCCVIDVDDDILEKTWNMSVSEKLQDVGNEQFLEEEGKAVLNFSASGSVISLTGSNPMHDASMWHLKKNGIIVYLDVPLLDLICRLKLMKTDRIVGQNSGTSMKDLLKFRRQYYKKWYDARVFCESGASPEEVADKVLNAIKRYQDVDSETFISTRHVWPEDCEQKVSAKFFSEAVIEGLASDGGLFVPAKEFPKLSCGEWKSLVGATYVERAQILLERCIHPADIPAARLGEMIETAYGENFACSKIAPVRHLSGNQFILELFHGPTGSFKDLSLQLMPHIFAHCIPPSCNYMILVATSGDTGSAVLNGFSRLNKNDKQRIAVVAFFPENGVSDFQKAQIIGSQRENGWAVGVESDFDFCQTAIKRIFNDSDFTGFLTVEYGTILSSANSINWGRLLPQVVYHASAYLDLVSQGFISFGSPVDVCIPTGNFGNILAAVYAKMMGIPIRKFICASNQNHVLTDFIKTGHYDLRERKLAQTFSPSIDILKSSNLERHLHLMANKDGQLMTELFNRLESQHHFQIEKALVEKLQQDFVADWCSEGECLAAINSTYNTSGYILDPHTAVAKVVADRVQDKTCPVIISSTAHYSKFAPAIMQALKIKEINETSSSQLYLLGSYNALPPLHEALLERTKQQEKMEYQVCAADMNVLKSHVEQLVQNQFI
WAPAL C160 (Q7Z5K2), sequence (Q7Z5K2 whole entry, the tested form may be a part): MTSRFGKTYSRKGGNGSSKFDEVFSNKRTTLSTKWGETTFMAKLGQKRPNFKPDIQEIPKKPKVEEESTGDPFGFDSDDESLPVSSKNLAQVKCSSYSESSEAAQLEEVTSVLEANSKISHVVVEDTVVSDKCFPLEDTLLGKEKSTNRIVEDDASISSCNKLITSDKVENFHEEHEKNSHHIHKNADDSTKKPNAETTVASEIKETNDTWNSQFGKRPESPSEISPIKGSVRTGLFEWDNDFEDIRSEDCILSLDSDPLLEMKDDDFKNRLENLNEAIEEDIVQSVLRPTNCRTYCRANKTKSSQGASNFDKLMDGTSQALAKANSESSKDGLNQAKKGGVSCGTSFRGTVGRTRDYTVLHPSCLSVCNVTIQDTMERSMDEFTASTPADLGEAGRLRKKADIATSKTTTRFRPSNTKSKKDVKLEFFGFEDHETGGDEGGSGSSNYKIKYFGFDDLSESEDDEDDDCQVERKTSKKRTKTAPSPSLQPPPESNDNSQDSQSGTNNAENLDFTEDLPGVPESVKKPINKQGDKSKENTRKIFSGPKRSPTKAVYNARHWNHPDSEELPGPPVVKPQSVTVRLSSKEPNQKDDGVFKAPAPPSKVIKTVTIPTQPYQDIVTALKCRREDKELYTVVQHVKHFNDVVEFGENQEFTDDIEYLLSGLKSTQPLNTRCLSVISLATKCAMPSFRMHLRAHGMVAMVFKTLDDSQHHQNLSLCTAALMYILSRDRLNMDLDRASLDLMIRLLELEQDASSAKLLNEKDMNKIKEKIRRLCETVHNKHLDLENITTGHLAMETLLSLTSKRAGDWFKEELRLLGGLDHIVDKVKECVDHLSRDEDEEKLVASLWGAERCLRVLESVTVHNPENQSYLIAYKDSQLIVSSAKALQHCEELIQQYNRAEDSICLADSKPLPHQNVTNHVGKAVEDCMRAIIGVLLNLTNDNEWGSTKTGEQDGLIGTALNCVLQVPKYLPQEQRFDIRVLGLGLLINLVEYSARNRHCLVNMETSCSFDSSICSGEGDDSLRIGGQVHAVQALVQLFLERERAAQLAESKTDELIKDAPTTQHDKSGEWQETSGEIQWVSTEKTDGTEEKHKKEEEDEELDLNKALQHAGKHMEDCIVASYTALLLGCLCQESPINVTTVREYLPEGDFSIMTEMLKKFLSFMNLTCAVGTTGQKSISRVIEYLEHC
NIT1 C165 (Q86X76), sequence (Q86X76 14-327): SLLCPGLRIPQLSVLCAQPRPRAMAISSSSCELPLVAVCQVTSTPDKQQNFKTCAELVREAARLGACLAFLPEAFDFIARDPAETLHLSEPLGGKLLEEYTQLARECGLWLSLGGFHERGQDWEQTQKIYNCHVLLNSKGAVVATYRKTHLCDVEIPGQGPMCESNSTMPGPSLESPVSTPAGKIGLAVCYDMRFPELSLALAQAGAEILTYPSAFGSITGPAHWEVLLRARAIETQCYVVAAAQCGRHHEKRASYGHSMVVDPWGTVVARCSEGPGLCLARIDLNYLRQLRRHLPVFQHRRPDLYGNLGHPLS
RAI14 C973 (Q9P0K7), sequence (Q9P0K7 whole entry, the tested form may be a part): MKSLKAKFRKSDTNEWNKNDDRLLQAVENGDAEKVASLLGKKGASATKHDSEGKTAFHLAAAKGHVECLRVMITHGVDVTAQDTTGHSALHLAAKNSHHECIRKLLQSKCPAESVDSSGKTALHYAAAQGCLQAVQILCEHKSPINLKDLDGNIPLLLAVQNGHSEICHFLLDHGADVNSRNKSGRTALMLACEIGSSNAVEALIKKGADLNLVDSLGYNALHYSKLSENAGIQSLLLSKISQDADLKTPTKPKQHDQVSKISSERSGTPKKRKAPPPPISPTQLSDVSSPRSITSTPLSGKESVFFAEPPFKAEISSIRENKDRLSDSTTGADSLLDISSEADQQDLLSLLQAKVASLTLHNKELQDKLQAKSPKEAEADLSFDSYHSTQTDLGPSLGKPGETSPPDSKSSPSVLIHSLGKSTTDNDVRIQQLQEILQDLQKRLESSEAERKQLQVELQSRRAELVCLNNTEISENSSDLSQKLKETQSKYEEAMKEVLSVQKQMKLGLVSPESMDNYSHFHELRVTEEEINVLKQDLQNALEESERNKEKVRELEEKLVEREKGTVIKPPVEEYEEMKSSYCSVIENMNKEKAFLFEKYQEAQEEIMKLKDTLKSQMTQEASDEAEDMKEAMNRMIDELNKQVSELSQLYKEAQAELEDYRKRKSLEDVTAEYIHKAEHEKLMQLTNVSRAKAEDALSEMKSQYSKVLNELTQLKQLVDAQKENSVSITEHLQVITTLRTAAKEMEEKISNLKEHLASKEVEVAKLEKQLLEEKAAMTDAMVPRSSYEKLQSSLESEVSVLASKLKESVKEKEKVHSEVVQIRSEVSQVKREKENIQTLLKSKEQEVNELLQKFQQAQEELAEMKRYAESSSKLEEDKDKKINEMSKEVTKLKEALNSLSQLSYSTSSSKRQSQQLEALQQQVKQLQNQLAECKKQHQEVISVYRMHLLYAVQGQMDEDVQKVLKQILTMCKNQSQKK

Question: Which results are given for `COC(=O)/C=C/C(=O)OC` [DMF, dimethyl fumarate]?
Answer: sensitivity of activation of Nrf2(+/+) and (-/-) T cells [1]: similarly sensitive; fraction of conserved, quantified DMF-sensitive Cys also blocked (R >4) in mouse T cells [2]: > 80%; R value (DMSO/DMF) ([3]; DMF 50 μM 2h): 3.05; R value (DMSO/DMF) ([3]; DMF 50 μM 4h): 6.14; R value (DMSO/DMF) ([4]; DMF 50 μM 1h): 15.93; R value (DMSO/DMF) ([4]; DMF 50 μM 2h): 19.36; R value (DMSO/DMF) ([5]; DMF 10 μM 4h): 1.46; R value (DMSO/DMF) ([5]; DMF 25 μM 4h): 2.52; R value (DMSO/DMF) ([5]; DMF 50 μM 1h): 2.36; R value (DMSO/DMF) ([5]; DMF 50 μM 2h): 3.13; R value (DMSO/DMF) ([5]; DMF 50 μM 4h): 6.28; R value (DMSO/DMF) ([6]; DMF 10 μM 4h): 1.92; R value (DMSO/DMF) ([6]; DMF 50 μM 1h): 8.6; R value (DMSO/DMF) ([6]; DMF 50 μM 2h): 20; R value (DMSO/DMF) ([6]; DMF 50 μM 4h): 20; R value (DMSO/DMF) ([7]; DMF 50 μM 1h): 1.97; R value (DMSO/DMF) ([7]; DMF 50 μM 2h): 2.66; R value (DMSO/DMF) ([7]; DMF 50 μM 4h): 5.83; T cell viability (primary human T cells): did not impair

Question: `COc1ccc2c(c1)CCCN2C(=O)CCl` [compound 2] was tested. Which “isoTOP-ABPP reactivity profile (ratio) 2_200 μM_in-situ_231” value (WAPAL C160 (Q7Z5K2)) did it give?
Answer: The value was 20.0.

Question: Which results are given for `COc1ccc(C2CC(c3cccs3)=NN2C(=O)CCl)cc1` (centres unmarked) [compound 4]?
Answer: isoTOP-ABPP reactivity profile (ratio) 4_100 μM_in-situ_231 (NIT1 C165 (Q86X76)): 0.9; isoTOP-ABPP reactivity profile (ratio) 4_100 μM_in-situ_231 (RAI14 C973 (Q9P0K7)): 8.7; isoTOP-ABPP reactivity profile (ratio) 4_100 μM_in-situ_231 (CDKN3 C39 (Q16667)): 0.6

Source: US10670605B2, “Cysteine reactive probes and uses thereof” (The Scripps Research Institute, priority 2015, dated 2020)
